These results are taken from ChEMBL document CHEMBL1146941, “Synthesis of pyrazinamide Mannich bases and its antitubercular properties” (2006).

In experiment [1] the test system is Vero. The experiment is described as follows: Cytotoxicity against Vero cells by MTT assay. It is filed as functional. Conditions: Chlorocebus sabaeus.
The subject of experiment [2] is Mycobacterium tuberculosis. The experiment is described as follows: Antimycobacterial activity against Mycobacterium tuberculosis. Type of experiment: functional.
Experiment [3] relates to Vero. The experiment is described as follows: Selectivity index (CC50/MIC90). Type of experiment: functional.
The subject of experiment [4] is Mycobacterium tuberculosis. Kind of experiment: Activity against Mycobacterium tuberculosis ATCC 35801 in lungs of CD1 mice at 100 mg/kg. It is filed as functional, Lung.
The test system of experiment [5] is Mycobacterium tuberculosis. The experiment is described as follows: Activity against Mycobacterium tuberculosis ATCC 35801 in spleen of CD1 mice at 100 mg/kg. Type of experiment: functional.

SMILES strings stand for the structures. In brackets after ≈: the same amount, converted by molar mass.

`O=C(NCN1CCN(c2ccc(C(F)(F)F)cc2)CC1)c1cnccn1` returned a CC50 with Vero [1] greater than 62.5 µg/mL. Besides, in experiment [2], the MIC90 is 0.78 µg/mL (≈ 2.13 µM). Besides, in the experiment with Vero [3], the Selectivity index is greater than 80.

On to `O=C(NCN1CCN(c2ccc(F)cc2)CC1)c1cnccn1`, for which the CC50 in the experiment on Vero [1] is greater than 62.5 µg/mL. For the same molecule, the MIC90 in experiment [2] was 1.76 µg/mL (≈ 5.58 µM). For the same molecule, the Selectivity index in the experiment with Vero [3] is listed as greater than 40.

`COc1ccccc1N1CCN(CNC(=O)c2cnccn2)CC1` returned an MIC90 in experiment [2] of 12.5 µg/mL (≈ 38.2 µM).

Consider `O=C(NCN1CCN(c2ccccc2)CC1)c1cnccn1`, for which, in experiment [2], the MIC90 is 6.25 µg/mL (≈ 21 µM).

In the experiment with Vero [1], `COc1c(N2CCN(CNC(=O)c3cnccn3)C(C)C2)c(F)cc2c(=O)c(C(=O)O)cn(C3CC3)c12` (stereo unspecified) displayed a CC50 greater than 62.5 µg/mL. Besides, the Selectivity index with Vero [3] was greater than 160.

With `O=C(NCN1CCN(Cc2ccccc2)CC1)c1cnccn1`, the MIC90 in experiment [2] stood at 6.25 µg/mL (≈ 20.1 µM).

In experiment [2], `NC(=O)c1cnccn1` [PYRAZINAMIDE] showed an MIC90 of 12.5 µg/mL (≈ 102 µM).

In experiment [2], `O=C(NCN1CCN(c2ccccn2)CC1)c1cnccn1` gave an MIC90 of 12.5 µg/mL (≈ 41.9 µM).

Turning to `O=C(NCN1CCN(c2cccc(Cl)c2)CC1)c1cnccn1`, the MIC90 in experiment [2] was determined as 3.12 µg/mL (≈ 9.4 µM).

`COc1ccc(N2CCN(CNC(=O)c3cnccn3)CC2)cc1` yielded an MIC90 in experiment [2] of 12.5 µg/mL (≈ 38.2 µM).

In the case of `CN1CCN(CNC(=O)c2cnccn2)CC1`, the values for the Log10 cfu in experiment [4] and in experiment [5] were 6.02 and 7.18, respectively. Further, in experiment [2], the MIC90 was 12.5 µg/mL (≈ 53.1 µM).

For the molecule `O=C(NCN1CCN(c2cc3c(cc2F)c(=O)c(C(=O)O)cn3C2CC2)CC1)c1cnccn1`, in the experiment on Vero [1], the CC50 is greater than 62.5 µg/mL. For the same molecule, the MIC90 in experiment [2] is 3.13 µg/mL (≈ 6.71 µM). Further, in the experiment on Vero [3], the Selectivity index is greater than 20.

Turning to `O=C(NCN1CCN(c2ncccn2)CC1)c1cnccn1`, the MIC90 in experiment [2] is greater than 12.5 µg/mL.

As for `COc1cccc(N2CCN(CNC(=O)c3cnccn3)CC2)c1`, in experiment [2], the MIC90 was found to be 12.5 µg/mL (≈ 38.2 µM).

`O=C(NCN1CCN(c2ccc(Cl)cc2)CC1)c1cnccn1` yielded an MIC90 in experiment [2] of 3.12 µg/mL (≈ 9.4 µM).

In turn, `CCn1cc(C(=O)O)c(=O)c2cc(F)c(N3CCN(CNC(=O)c4cnccn4)CC3)c(F)c21` returned a CC50 in the experiment on Vero [1] greater than 62.5 µg/mL. Further, the MIC90 in experiment [2] was determined as 0.78 µg/mL (≈ 1.65 µM). The same molecule gave a Selectivity index with Vero [3] greater than 80.

In turn, `CCn1cc(C(=O)O)c(=O)c2cc(F)c(N3CCN(CNC(=O)c4cnccn4)CC3)cc21` yielded a CC50 in the experiment with Vero [1] greater than 62.5 µg/mL. Also, the MIC90 in experiment [2] turned out to be 1.76 µg/mL (≈ 3.87 µM). Also, the Selectivity index in the experiment on Vero [3] was greater than 40.

`O=C(NCN1CCN(c2ccc([N+](=O)[O-])cc2)CC1)c1cnccn1`: the MIC90 in experiment [2] was 6.25 µg/mL (≈ 18.3 µM).

One may read the CC50 as the concentration at which the toxic effect on the cells reaches its halfway point. Lower therefore signals greater toxicity to the cells. Broadly, the MIC90 is an inhibitory concentration at the 90% level, which refers to growth in some studies and to a panel of isolates in others.
